Assay results from PubChem BioAssay (NCI).
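Grown in 96-well plates, cells were treated for 48 hours with each compound at five concentrations. Insufficient inhibition: endpoint recorded as highest concentration tested. TGI is the concentration that stops growth completely.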

Assays:
Assay in all cases: NCI anticancer screen, dose series, 48 h
786-0 renal = system: 786-0 renal
A498 renal = system: A498 renal
A549 NSCLC = system: A549 NSCLC
ACHN renal = system: ACHN renal
CAKI-1 renal = system: CAKI-1 renal
CCRF-CEM leukemia = system: CCRF-CEM leukemia
COLO 205 colon = system: COLO 205 colon
DU-145 prostate = system: DU-145 prostate
EKVX NSCLC = system: EKVX NSCLC
HCC-2998 colon = system: HCC-2998 colon
HCT-116 colon = system: HCT-116 colon
HCT-15 colon = system: HCT-15 colon
HL-60(TB) leukemia = system: HL-60(TB) leukemia
HOP-62 NSCLC = system: HOP-62 NSCLC
HS 578T breast = system: HS 578T breast
HT29 colon = system: HT29 colon
IGROV1 ovarian = system: IGROV1 ovarian
K-562 leukemia = system: K-562 leukemia
KM12 colon = system: KM12 colon
LOX IMVI melanoma = system: LOX IMVI melanoma
MALME-3M melanoma = system: MALME-3M melanoma
MDA-MB-231 breast = system: MDA-MB-231 breast
MDA-MB-435 = system: MDA-MB-435
MDA-N = system: MDA-N
MOLT-4 leukemia = system: MOLT-4 leukemia
NCI-H226 lung = system: NCI-H226 lung
NCI-H23 lung = system: NCI-H23 lung
NCI-H460 lung = system: NCI-H460 lung
NCI-H522 lung = system: NCI-H522 lung
NCI/ADR-RES ovarian = system: NCI/ADR-RES ovarian
OVCAR-4 ovarian = system: OVCAR-4 ovarian
OVCAR-5 ovarian = system: OVCAR-5 ovarian
OVCAR-8 ovarian = system: OVCAR-8 ovarian
PC-3 prostate = system: PC-3 prostate
RPMI-8226 leukemia = system: RPMI-8226 leukemia
RXF 393 renal = system: RXF 393 renal
SF-268 CNS = system: SF-268 CNS
SF-295 CNS = system: SF-295 CNS
SF-539 CNS = system: SF-539 CNS
SK-MEL-2 melanoma = system: SK-MEL-2 melanoma
SK-MEL-28 melanoma = system: SK-MEL-28 melanoma
SK-MEL-5 melanoma = system: SK-MEL-5 melanoma
SK-OV-3 ovarian = system: SK-OV-3 ovarian
SN12C renal = system: SN12C renal
SNB-19 CNS = system: SNB-19 CNS
SNB-75 CNS = system: SNB-75 CNS
SR leukemia = system: SR leukemia
SW-620 colon = system: SW-620 colon
T-47D breast = system: T-47D breast
TK-10 renal = system: TK-10 renal
U251 CNS = system: U251 CNS
UACC-257 melanoma = system: UACC-257 melanoma
UACC-62 melanoma = system: UACC-62 melanoma
UO-31 renal = system: UO-31 renal
BT-549 breast = system: BT-549 breast
HOP-92 NSCLC = system: HOP-92 NSCLC
M14 melanoma = system: M14 melanoma
MCF7 breast = system: MCF7 breast
OVCAR-3 ovarian = system: OVCAR-3 ovarian

O=C(c1ccccc1)N1C(=S)N=C(Nc2ccccc2)C1=Nc1ccccc1
TGI (786-0 renal): > 100 µM | TGI (A498 renal): > 100 µM | TGI (A549 NSCLC): > 100 µM | TGI (ACHN renal): > 100 µM | TGI (CAKI-1 renal): > 100 µM | TGI (CCRF-CEM leukemia): > 100 µM | TGI (COLO 205 colon): > 100 µM | TGI (DU-145 prostate): > 100 µM | TGI (EKVX NSCLC): > 100 µM | TGI (HCC-2998 colon): > 100 µM | TGI (HCT-116 colon): > 100 µM | TGI (HCT-15 colon): > 100 µM | TGI (HL-60(TB) leukemia): > 100 µM | TGI (HOP-62 NSCLC): > 100 µM | TGI (HS 578T breast): > 100 µM | TGI (HT29 colon): > 100 µM | TGI (IGROV1 ovarian): > 100 µM | TGI (K-562 leukemia): > 100 µM | TGI (KM12 colon): > 100 µM | TGI (LOX IMVI melanoma): > 100 µM | TGI (MALME-3M melanoma): > 100 µM | TGI (MDA-MB-231 breast): > 100 µM | TGI (MDA-MB-435): > 100 µM | TGI (MDA-N): > 100 µM | TGI (MOLT-4 leukemia): > 100 µM | TGI (NCI-H226 lung): > 100 µM | TGI (NCI-H23 lung): > 100 µM | TGI (NCI-H460 lung): > 100 µM | TGI (NCI-H522 lung): > 100 µM | TGI (NCI/ADR-RES ovarian): > 100 µM | TGI (OVCAR-4 ovarian): > 100 µM | TGI (OVCAR-5 ovarian): > 100 µM | TGI (OVCAR-8 ovarian): > 100 µM | TGI (PC-3 prostate): > 100 µM | TGI (RPMI-8226 leukemia): > 100 µM | TGI (RXF 393 renal): > 100 µM | TGI (SF-268 CNS): > 100 µM | TGI (SF-295 CNS): > 100 µM | TGI (SF-539 CNS): > 100 µM | TGI (SK-MEL-2 melanoma): > 100 µM | TGI (SK-MEL-28 melanoma): > 100 µM | TGI (SK-MEL-5 melanoma): > 100 µM | TGI (SK-OV-3 ovarian): > 100 µM | TGI (SN12C renal): > 100 µM | TGI (SNB-19 CNS): > 100 µM | TGI (SNB-75 CNS): > 100 µM | TGI (SR leukemia): > 100 µM | TGI (SW-620 colon): > 100 µM | TGI (T-47D breast): > 100 µM | TGI (TK-10 renal): > 100 µM | TGI (U251 CNS): > 100 µM | TGI (UACC-257 melanoma): > 100 µM | TGI (UACC-62 melanoma): > 100 µM | TGI (UO-31 renal): > 100 µM

CCN(CC)CCNc1ccc2ncn3c4cc(OC)c(OC)c(=O)c4c(O)c1c23
TGI (786-0 renal): 26.4 µM | TGI (A498 renal): 29.5 µM | TGI (A549 NSCLC): 35.1 µM | TGI (ACHN renal): 20.5 µM | TGI (BT-549 breast): 30.5 µM | TGI (CAKI-1 renal): 28.9 µM | TGI (CCRF-CEM leukemia): 53.1 µM | TGI (COLO 205 colon): 17.4 µM | TGI (DU-145 prostate): 23.5 µM | TGI (EKVX NSCLC): 33.2 µM | TGI (HCC-2998 colon): 23.2 µM | TGI (HCT-116 colon): 5.82 µM | TGI (HCT-15 colon): 24.7 µM | TGI (HL-60(TB) leukemia): 26.3 µM | TGI (HOP-62 NSCLC): 28.2 µM | TGI (HOP-92 NSCLC): 24.7 µM | TGI (HS 578T breast): 29.1 µM | TGI (HT29 colon): 19.8 µM | TGI (IGROV1 ovarian): 35.6 µM | TGI (K-562 leukemia): 50.7 µM | TGI (KM12 colon): 23.2 µM | TGI (LOX IMVI melanoma): 2.74 µM | TGI (M14 melanoma): 30.3 µM | TGI (MALME-3M melanoma): 36.8 µM | TGI (MCF7 breast): 15.2 µM | TGI (MDA-MB-231 breast): 20.7 µM | TGI (MDA-MB-435): 26.9 µM | TGI (MOLT-4 leukemia): 11.5 µM | TGI (NCI-H226 lung): 45.6 µM | TGI (NCI-H23 lung): 26.3 µM | TGI (NCI-H460 lung): 15.6 µM | TGI (NCI-H522 lung): 25.9 µM | TGI (NCI/ADR-RES ovarian): 41.8 µM | TGI (OVCAR-3 ovarian): 31.7 µM | TGI (OVCAR-4 ovarian): 24.4 µM | TGI (OVCAR-5 ovarian): 45.4 µM | TGI (OVCAR-8 ovarian): 27.9 µM | TGI (PC-3 prostate): 21 µM | TGI (RPMI-8226 leukemia): 20.2 µM | TGI (RXF 393 renal): 6.26 µM | TGI (SF-268 CNS): 17.6 µM | TGI (SF-295 CNS): 23.6 µM | TGI (SF-539 CNS): 29 µM | TGI (SK-MEL-2 melanoma): 42.7 µM | TGI (SK-MEL-28 melanoma): 27.5 µM | TGI (SK-MEL-5 melanoma): 29.8 µM | TGI (SK-OV-3 ovarian): 28.8 µM | TGI (SN12C renal): 21.5 µM | TGI (SNB-19 CNS): 22.6 µM | TGI (SNB-75 CNS): 16.5 µM | TGI (SR leukemia): 16.2 µM | TGI (SW-620 colon): 16.5 µM | TGI (T-47D breast): 42.4 µM | TGI (TK-10 renal): 31.6 µM | TGI (U251 CNS): 28 µM | TGI (UACC-257 melanoma): 44.2 µM | TGI (UACC-62 melanoma): 36.6 µM | TGI (UO-31 renal): 25.7 µM
